Patent US12544356B2, “Combination of a chromene compound and a second active agent” (EUCLISES PHARMACEUTICALS, INC., priority 2016, dated 2026)

Experiments:
[1] = Body weight in HT-29 xenograft study (Example 1); type: in vivo, CB17SCID male mice
Experimental: (§1) 48 CB17SCID male mice were implanted with 2.5×10^6 HT29 cells. Growth of the tumor was calculated for each animal using a caliper and the equation: V=π×ab^2/6.
(§2) Mouse weight and tumor volume measurements were taken on days 0, 3, 6, 9, 12, 15, 18, 21, and 22 following randomization.

[2] = test system: PGE2; experiment: Intratumoral concentration of PGE2 in HT-29 tumors (Example 1); type: in vivo, CB17SCID male mice; details: HT-29 tumor, day 24
Experimental: as §1, §2

[3] = test system: CT26 xenograft murine colon carcinoma model; experiment: CT26 tumor rejection, COX-2 inhibitor with anti-PD1 antibody (Example 2); type: in vivo, female BALB/c mice; details: up to 50 days following inoculation, COX-2 inhibitor oral daily from day 0, anti-PD-1 200 μg/mouse i.p.
Experimental: CT26.WT cells were cultured under standard conditions. They were harvested with trypsin and washed with PBS. 10^5 cells were injected into the right flank of 6 week old female BALB/c mice in total volume of 100 μL. Tumor size was quantified as the mean of the longest diameter and its perpendicular.

[4] = test system: immune cell infiltration into the tumors (CT26); experiment: Immune response to CT26 tumors: tumor-infiltrating and splenic immune cells (Example 3); type: in vivo, Female BALB/c mice; details: Day 16; compared to vehicle treated mice
Experimental: Female BALB/c mice were inoculated with 10^5 CT26 colorectal cancer cells as in Example 2. […] Anti-PD1 antibody was administered i.p. (200 μg/mouse) at days 9 and 14 post inoculation. Tumors were analyzed at day 16 (7 days after first anti-PD1 administration).

[5] = test system: CT26 murine colon carcinoma cells; experiment: CT26 tumor growth, Compound A01 with anti-mPD-L1 (Example 4); type: in vivo, Female Envigo BALB/c (BALB/cAnNHsd) mice; details: for tumor growth (tumor volume): all doses 10 mg/kg, A01 oral daily, antibodies i.p.
Experimental: CT26 murine colon carcinoma cells were prepared as in Example 2. Female Envigo BALB/c (BALB/cAnNHsd) were inoculated with 5×10^5 CT26 cells suspended in PBS (200 μL) subcutaneously high in the axilla (just under the fore limb). […] The antibodies were administered via i.p. injection on days 3, 6, 9, 12, and 16 following inoculation. Compound A01 was given per oral daily. The mice were euthanized two hours following final dose on Day 16 and samples were prepared for testing.

[6] = test system: HT-29 xenograft colon carcinoma model; experiment: HT-29 xenograft tumor volume, Compound A01 vs celecoxib (Example 5); type: in vivo, CB17SCID mice
Experimental: HT-29 cells were prepared and implanted by standard methods using the same procedure as Example 1.
42 CB17SCID mice were implanted with 2.5×10^6 HT-29 cells.
Mouse weight and tumor volume measurements were taken on days 0, 3, 6, 9, 12, 15, 18, 21, and 22 following randomization. After 22 days dosing, the blood from each animal was collected at 2 hours and 6 hours post dose.

[7] = test system: CT26.WT murine colon carcinomas; experiment: CT26 tumor volume, Compound A01 vs celecoxib (Example 6); type: in vivo, Female Harlan Balb/c mice (BALB/cAnNHsd)
Experimental: CT26 murine colon carcinoma cells were prepared as in Example 2. Female Harlan Balb/c mice (BALB/cAnNHsd) were inoculated with 5×10^5 CT26 cells suspended in PBS (200 μL) subcutaneously high in the axilla (just under the fore limb). All mice were sorted into study groups based on caliper measurement estimation of tumor burden on Day 8 when the mean tumor burden for all animals was approximately 79 mm^3 (range of group means, 75-83 mm^3).

[2H]C([2H])([2H])c1cc(Br)cc2c1O[C@H](C(F)(F)F)C(C(=O)O)=C2 [Compound A01, (S)-6-bromo-8-trideuteromethyl-2-(trifluoromethyl)-2H-chromene-3-carboxylic acid]
Body weight ([1]; Day 0, A01 1 mg/kg oral daily): 23.4 g
Body weight ([1]; Day 0, A01 10 mg/kg oral daily): 23.5 g
Body weight ([1]; Day 3, A01 1 mg/kg oral daily): 22.4 g
Body weight ([1]; Day 6, A01 1 mg/kg oral daily): 21.6 g
Body weight ([1]; Day 6, A01 10 mg/kg oral daily): 22.0 g
Body weight ([1]; Day 15, A01 1 mg/kg oral daily): 20.0 g
Body weight ([1]; Day 18, A01 1 mg/kg oral daily): 19.9 g
Body weight ([1]; Day 21, A01 1 mg/kg oral daily): 19.9 g
Body weight ([1]; Day 22, A01 1 mg/kg oral daily): 20.0 g
Intratumoral concentration of PGE2 (mean ± SD) ([2]; A01 1 mg/kg): 14.01 ± 30.3 µg/g
Intratumoral concentration of PGE2 (mean ± SD) ([2]; A01 10 mg/kg): 0 µg/g
tumor rejection / tumor growth [3]: did not prevent tumor growth
CD45+ (leukocyte), CD3+, CD8+, CD8+IFNγ+, CD4+IFNγ+, CD8+TNFα+ and CD4+TNFα+ cell infiltration into the tumors [4]: increase
tumor growth compared to vehicle and isotype controls ([5]; CT26, doses 10 mg/kg): slowed
tumor growth (tumor volume) ([5]; Day 3): 0 mm^3
tumor growth (tumor volume) ([5]; Day 4): 0 mm^3
tumor growth (tumor volume) ([5]; Day 6): 8 mm^3
tumor growth (tumor volume) ([5]; Day 9): 97 mm^3
tumor growth (tumor volume) ([5]; Day 11): 242 mm^3
tumor growth (tumor volume) ([5]; Day 13): 442 mm^3
tumor growth (tumor volume) ([5]; Day 16): 759 mm^3
Tumor Volume ([6]; Day 0, 0.1 mg/kg oral daily): 65.8 mm^3
Tumor Volume ([6]; Day 0, 0.3 mg/kg oral daily): 70.9 mm^3
Tumor Volume ([6]; Day 0, 1 mg/kg oral daily): 68.5 mm^3
Tumor Volume ([6]; Day 0, 3 mg/kg oral daily): 68.4 mm^3
Tumor Volume ([6]; Day 0, 10 mg/kg oral daily): 69.0 mm^3
Tumor Volume ([6]; Day 3, 0.1 mg/kg oral daily): 88.5 mm^3
Tumor Volume ([6]; Day 3, 0.3 mg/kg oral daily): 83.8 mm^3
Tumor Volume ([6]; Day 3, 1 mg/kg oral daily): 85.2 mm^3
Tumor Volume ([6]; Day 3, 3 mg/kg oral daily): 80.3 mm^3
Tumor Volume ([6]; Day 3, 10 mg/kg oral daily): 83.9 mm^3
Tumor Volume ([6]; Day 6, 0.1 mg/kg oral daily): 165.0 mm^3
Tumor Volume ([6]; Day 6, 0.3 mg/kg oral daily): 132.9 mm^3
Tumor Volume ([6]; Day 6, 1 mg/kg oral daily): 152.8 mm^3
Tumor Volume ([6]; Day 6, 3 mg/kg oral daily): 121.9 mm^3
Tumor Volume ([6]; Day 6, 10 mg/kg oral daily): 107.7 mm^3
Tumor Volume ([6]; Day 9, 0.1 mg/kg oral daily): 283.1 mm^3
Tumor Volume ([6]; Day 9, 0.3 mg/kg oral daily): 231.5 mm^3
Tumor Volume ([6]; Day 9, 1 mg/kg oral daily): 239.8 mm^3
Tumor Volume ([6]; Day 9, 3 mg/kg oral daily): 190.1 mm^3
Tumor Volume ([6]; Day 9, 10 mg/kg oral daily): 176.0 mm^3
Tumor Volume ([6]; Day 12, 0.1 mg/kg oral daily): 360.3 mm^3
Tumor Volume ([6]; Day 12, 0.3 mg/kg oral daily): 298.2 mm^3
Tumor Volume ([6]; Day 12, 1 mg/kg oral daily): 311.1 mm^3
Tumor Volume ([6]; Day 12, 3 mg/kg oral daily): 279.5 mm^3
Tumor Volume ([6]; Day 12, 10 mg/kg oral daily): 257.7 mm^3
Tumor Volume ([6]; Day 15, 0.1 mg/kg oral daily): 416.8 mm^3
Tumor Volume ([6]; Day 15, 0.3 mg/kg oral daily): 350.7 mm^3
Tumor Volume ([6]; Day 15, 1 mg/kg oral daily): 364.8 mm^3
Tumor Volume ([6]; Day 15, 3 mg/kg oral daily): 329.1 mm^3
Tumor Volume ([6]; Day 15, 10 mg/kg oral daily): 332.0 mm^3
Tumor Volume ([6]; Day 18, 0.1 mg/kg oral daily): 640.9 mm^3
Tumor Volume ([6]; Day 18, 0.3 mg/kg oral daily): 530.8 mm^3
Tumor Volume ([6]; Day 18, 1 mg/kg oral daily): 532.6 mm^3
Tumor Volume ([6]; Day 18, 3 mg/kg oral daily): 445.1 mm^3
Tumor Volume ([6]; Day 18, 10 mg/kg oral daily): 357.3 mm^3
Tumor Volume ([6]; Day 21, 0.1 mg/kg oral daily): 900.4 mm^3
Tumor Volume ([6]; Day 21, 0.3 mg/kg oral daily): 723.5 mm^3
Tumor Volume ([6]; Day 21, 1 mg/kg oral daily): 730.9 mm^3
Tumor Volume ([6]; Day 21, 3 mg/kg oral daily): 622.8 mm^3
Tumor Volume ([6]; Day 21, 10 mg/kg oral daily): 453.6 mm^3
Tumor Volume ([6]; Day 22, 0.1 mg/kg oral daily): 987.7 mm^3
Tumor Volume ([6]; Day 22, 0.3 mg/kg oral daily): 753.5 mm^3
Tumor Volume ([6]; Day 22, 1 mg/kg oral daily): 772.1 mm^3
Tumor Volume ([6]; Day 22, 3 mg/kg oral daily): 699.4 mm^3
Tumor Volume ([6]; Day 22, 10 mg/kg oral daily): 561.8 mm^3
CT26 Tumor Volume ([7]; Day 8, 0.3 mg/kg): 80 ± 6 mm^3
CT26 Tumor Volume ([7]; Day 8, 1 mg/kg): 78 ± 5 mm^3
CT26 Tumor Volume ([7]; Day 8, 3 mg/kg): 83 ± 3 mm^3
CT26 Tumor Volume ([7]; Day 8, 10 mg/kg): 79 ± 6 mm^3
CT26 Tumor Volume ([7]; Day 8, 30 mg/kg): 78 ± 5 mm^3
CT26 Tumor Volume ([7]; Day 10, 0.3 mg/kg): 139 ± 15 mm^3
CT26 Tumor Volume ([7]; Day 10, 1 mg/kg): 118 ± 17 mm^3
CT26 Tumor Volume ([7]; Day 10, 3 mg/kg): 127 ± 11 mm^3
CT26 Tumor Volume ([7]; Day 10, 10 mg/kg): 121 ± 14 mm^3
CT26 Tumor Volume ([7]; Day 10, 30 mg/kg): 119 ± 8 mm^3
CT26 Tumor Volume ([7]; Day 13, 0.3 mg/kg): 460 ± 73 mm^3
CT26 Tumor Volume ([7]; Day 13, 1 mg/kg): 286 ± 48 mm^3
CT26 Tumor Volume ([7]; Day 13, 3 mg/kg): 314 ± 49 mm^3
CT26 Tumor Volume ([7]; Day 13, 10 mg/kg): 257 ± 35 mm^3
CT26 Tumor Volume ([7]; Day 13, 30 mg/kg): 309 ± 34 mm^3
CT26 Tumor Volume ([7]; Day 15, 0.3 mg/kg): 694 ± 116 mm^3
CT26 Tumor Volume ([7]; Day 15, 1 mg/kg): 433 ± 67 mm^3
CT26 Tumor Volume ([7]; Day 15, 3 mg/kg): 560 ± 79 mm^3
CT26 Tumor Volume ([7]; Day 15, 10 mg/kg): 590 ± 109 mm^3
CT26 Tumor Volume ([7]; Day 15, 30 mg/kg): 563 ± 89 mm^3
CT26 Tumor Volume ([7]; Day 17, 0.3 mg/kg): 1123 ± 198 mm^3
CT26 Tumor Volume ([7]; Day 17, 1 mg/kg): 689 ± 114 mm^3
CT26 Tumor Volume ([7]; Day 17, 3 mg/kg): 834 ± 114 mm^3
CT26 Tumor Volume ([7]; Day 17, 10 mg/kg): 758 ± 130 mm^3
CT26 Tumor Volume ([7]; Day 17, 30 mg/kg): 897 ± 101 mm^3
